Test results as given in the supplement of paper PMC10307832.

Legend:
Experiment in all cases: relative viability (nuclei count vs DMSO), 5 days (fraction); higher = more cells survive
Bleomycin + Phenformin = compound: CC1=C(N=C(N=C1N)[C@H](CC(=O)N)NC[C@@H](C(=O)N)N)C(=O)N[C@@H]([C@H](C2=CN=CN2)OC3C(C(C(C(O3)CO)O)O)OC4C(C(C(C(O4)CO)O)OC(=O)N)O)C(=O)N[C@H](C)[C@H]([C@H](C)C(=O)N[C@@H]([C@@H](C)O)C(=O)NCCC5=NC(=CS5)C6=NC(=CS6)C(=O)NCCC[S+](C)C)O [Bleomycin] + N=C(N)NC(=N)NCCc1ccccc1 [Phenformin] (partner 250 µM); details: main component drawn
Procedure, shortened: (§1)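 Lung cancer cell lines were seeded in 1536-well plates and dosed by pin tool the next day, with either a single drug or a fixed anchor-drug dose combined with five library-drug doses (not always all listed) spaced in √10 steps. Five days later, one step fixed the cells and stained their nuclei (final 0.05% Triton X-100, 1% formaldehyde, 1 ug/ml Hoechst), and nuclei were counted on 4× images. Relative viability is the nuclei count in treated wells divided by the count in vehicle wells, and each value is the median of duplicate plates.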

Bleomycin + Luminespib = compound: CC1=C(N=C(N=C1N)[C@H](CC(=O)N)NC[C@@H](C(=O)N)N)C(=O)N[C@@H]([C@H](C2=CN=CN2)OC3C(C(C(C(O3)CO)O)O)OC4C(C(C(C(O4)CO)O)OC(=O)N)O)C(=O)N[C@H](C)[C@H]([C@H](C)C(=O)N[C@@H]([C@@H](C)O)C(=O)NCCC5=NC(=CS5)C6=NC(=CS6)C(=O)NCCC[S+](C)C)O [Bleomycin] + CCNC(=O)c1noc(-c2cc(C(C)C)c(O)cc2O)c1-c1ccc(CN2CCOCC2)cc1 [Luminespib] (partner 0.01 µM); details: main component drawn
Procedure, shortened: as §1

Etoposide + Phenformin = compound: COc1cc([C@@H]2c3cc4c(cc3[C@@H](O[C@@H]3O[C@@H]5CO[C@@H](C)O[C@H]5[C@H](O)[C@H]3O)[C@H]3COC(=O)[C@H]23)OCO4)cc(OC)c1O [Etoposide] + N=C(N)NC(=N)NCCc1ccccc1 [Phenformin] (partner 250 µM)
Procedure, shortened: as §1

Etoposide + Luminespib = compound: COc1cc([C@@H]2c3cc4c(cc3[C@@H](O[C@@H]3O[C@@H]5CO[C@@H](C)O[C@H]5[C@H](O)[C@H]3O)[C@H]3COC(=O)[C@H]23)OCO4)cc(OC)c1O [Etoposide] + CCNC(=O)c1noc(-c2cc(C(C)C)c(O)cc2O)c1-c1ccc(CN2CCOCC2)cc1 [Luminespib] (partner 0.01 µM)
Procedure, shortened: as §1

Question: What does the source list for UMC-11?
Answer: relative viability (Bleomycin + Phenformin; first compound 0.01 µM): 0.311; relative viability (Bleomycin + Phenformin; first compound 0.03162 µM): 0.335; relative viability (Bleomycin + Phenformin; first compound 0.1 µM): 0.29; relative viability (Bleomycin + Phenformin; first compound 0.3162 µM): 0.283; relative viability (Bleomycin + Phenformin; first compound 1 µM): 0.233; relative viability (Bleomycin + Luminespib; first compound 0.01 µM): 0.914; relative viability (Bleomycin + Luminespib; first compound 0.03162 µM): 1.05; relative viability (Bleomycin + Luminespib; first compound 0.1 µM): 0.893; relative viability (Bleomycin + Luminespib; first compound 0.3162 µM): 0.65; relative viability (Bleomycin + Luminespib; first compound 1 µM): 0.539; relative viability (Etoposide + Phenformin; first compound 0.01 µM): 0.333; relative viability (Etoposide + Phenformin; first compound 0.03162 µM): 0.341; relative viability (Etoposide + Phenformin; first compound 0.1 µM): 0.275; relative viability (Etoposide + Phenformin; first compound 0.3162 µM): 0.233; relative viability (Etoposide + Phenformin; first compound 1 µM): 0.207; relative viability (Etoposide + Luminespib; first compound 0.01 µM): 1; relative viability (Etoposide + Luminespib; first compound 0.03162 µM): 1.09; relative viability (Etoposide + Luminespib; first compound 0.1 µM): 0.783; relative viability (Etoposide + Luminespib; first compound 0.3162 µM): 0.566; relative viability (Etoposide + Luminespib; first compound 1 µM): 0.279
